Assay results: patent US20030176314A1, “Compounds for the treatment of pain” (priority 2001, published 2003)
Read-outs that look alike come from different tables or passages of the source. Blank lines part the entries; values can stand above or below the compound they belong to.

Tests used:
rat NPFF1 receptor [1] = biological target: T1, rat NPFF1 receptor (Rattus norvegicus, UniProt Q9EP86); test: Functional assay (agonist potency, intrinsic activity) at cloned rat NPFF1 receptor; assay type: cell-based; conditions: for rNPFF1 IA: Table 7, intrinsic activity; for Functional Activity rNPFF1 I.A. %: percent of maximum response elicited by neuropeptide FF; for classification as agonist or antagonist at the NPFF1 receptor: agonist: IA>15%, antagonist: Ki≦1.2 mM and IA≦15% at the rat cloned NPFF receptors
T1 construct: expressed in transfected cells; host or cells: not given
T1 sequence (Q9EP86 whole entry): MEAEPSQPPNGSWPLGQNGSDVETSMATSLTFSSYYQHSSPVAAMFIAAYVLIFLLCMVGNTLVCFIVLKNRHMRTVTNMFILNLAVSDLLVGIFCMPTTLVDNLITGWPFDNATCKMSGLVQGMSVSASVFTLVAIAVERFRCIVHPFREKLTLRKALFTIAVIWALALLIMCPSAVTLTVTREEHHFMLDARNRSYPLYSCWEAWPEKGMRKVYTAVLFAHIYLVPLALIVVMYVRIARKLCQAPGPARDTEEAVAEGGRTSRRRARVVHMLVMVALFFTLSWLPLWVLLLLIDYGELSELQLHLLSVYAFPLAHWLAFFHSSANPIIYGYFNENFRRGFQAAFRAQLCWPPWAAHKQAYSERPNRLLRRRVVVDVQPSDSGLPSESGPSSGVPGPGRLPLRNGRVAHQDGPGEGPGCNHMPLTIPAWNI

rat NPFF1 receptor [2] = biological target: T1, rat NPFF1 receptor; test: Competition binding at cloned rat NPFF1 receptor ([125I]1DMeNPFF displacement)
Description: Transfected cells from culture flasks are scraped into 5 ml of 20 mM Tris-HCl, 5 mM EDTA, pH 7.5, and lysed by sonication. The cell lysates are centrifuged at 1000 rpm for 5 min. at 4° C., and the supernatant is centrifuged at 30,000×g for 20 min. at 4° C. […] Optimal membrane suspension dilutions, defined as the protein concentration required to bind less than 10% of the added radioligand, are […], unlabeled compounds, and binding buffer to a final volume of 250 μl. […]
(§1) Competition assay: 50 pM radioligand, 10-12 points. Binding reaction mixtures are incubated for 2 hr at 25° C., and the reaction stopped by filtration through a double layer of GF filters treated with 0.1% polyethyleneimine, using a cell harvester. Wash buffer: 50 mM Tris-HCl, 0.1% BSA. Radioactivity may be measured by scintillation counting and data are analyzed by a computerized non-linear regression program. Non-specific binding is defined as the amount of radioactivity remaining after incubation of membrane protein in the presence of 1 μM final concentration […]. Protein concentration may be measured by the Bradford method using Bio-Rad Reagent, with bovine serum albumin as a standard.

rat NPFF2 receptor [3] = biological target: T2, rat NPFF2 receptor (Rattus norvegicus, UniProt Q9EQD2); test: Functional assay (agonist potency, intrinsic activity) at cloned rat NPFF2 receptor; assay type: cell-based; conditions: for rNPFF2 IA: Table 7, intrinsic activity; for Functional Activity rNPFF2 I.A. %: percent of maximum response elicited by neuropeptide FF; for classification as agonist or antagonist at the NPFF2 receptor: agonist: IA>15%, antagonist: Ki≦1.2 mM and IA≦15% at the rat cloned NPFF receptors
T2 construct: The full-length NPFF2 was amplified from rat spinal cord cDNA; expressed in transfected cells; host or cells: not given
T2 sequence (Q9EQD2 whole entry): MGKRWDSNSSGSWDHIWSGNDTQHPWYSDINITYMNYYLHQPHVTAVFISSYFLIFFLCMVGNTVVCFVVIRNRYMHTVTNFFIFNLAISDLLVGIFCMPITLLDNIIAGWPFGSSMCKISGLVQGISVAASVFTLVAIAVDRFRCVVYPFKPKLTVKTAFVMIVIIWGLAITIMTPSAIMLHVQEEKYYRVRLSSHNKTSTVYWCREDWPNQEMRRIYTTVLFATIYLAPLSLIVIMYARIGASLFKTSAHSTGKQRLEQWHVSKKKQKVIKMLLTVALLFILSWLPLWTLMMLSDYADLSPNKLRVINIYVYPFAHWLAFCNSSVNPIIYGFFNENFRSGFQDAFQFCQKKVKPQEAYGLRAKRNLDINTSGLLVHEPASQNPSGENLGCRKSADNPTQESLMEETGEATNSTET

rat NPFF2 receptor [4] = biological target: T2, rat NPFF2 receptor; test: Competition binding at cloned rat NPFF2 receptor ([125I]1DMeNPFF displacement)
Description: Transfected cells from culture flasks are scraped into 5 ml of 20 mM Tris-HCl, 5 mM EDTA, pH 7.5, and lysed by sonication. The cell lysates are centrifuged at 1000 rpm for 5 min. at 4° C., and the supernatant is centrifuged at 30,000×g for 20 min. at 4° C. […] Optimal membrane suspension dilutions, defined as the protein concentration required to bind less than 10% of the added radioligand, […], unlabeled compounds, and binding buffer to a final volume of 250 μl. In equilibrium saturation binding assays membrane preparations are incubated in the presence of increasing concentrations of [^3H]-labeled compound.
as §1

[5] = biological target: T3, serotonin (5HT) transporter (Rattus norvegicus, UniProt P31652); test: Binding at native serotonin transporter (5HT uptake); conditions: Table 8
T3 construct: evaluated at native, tissue-derived transporters; from tissue
T3 sequence (P31652 whole entry): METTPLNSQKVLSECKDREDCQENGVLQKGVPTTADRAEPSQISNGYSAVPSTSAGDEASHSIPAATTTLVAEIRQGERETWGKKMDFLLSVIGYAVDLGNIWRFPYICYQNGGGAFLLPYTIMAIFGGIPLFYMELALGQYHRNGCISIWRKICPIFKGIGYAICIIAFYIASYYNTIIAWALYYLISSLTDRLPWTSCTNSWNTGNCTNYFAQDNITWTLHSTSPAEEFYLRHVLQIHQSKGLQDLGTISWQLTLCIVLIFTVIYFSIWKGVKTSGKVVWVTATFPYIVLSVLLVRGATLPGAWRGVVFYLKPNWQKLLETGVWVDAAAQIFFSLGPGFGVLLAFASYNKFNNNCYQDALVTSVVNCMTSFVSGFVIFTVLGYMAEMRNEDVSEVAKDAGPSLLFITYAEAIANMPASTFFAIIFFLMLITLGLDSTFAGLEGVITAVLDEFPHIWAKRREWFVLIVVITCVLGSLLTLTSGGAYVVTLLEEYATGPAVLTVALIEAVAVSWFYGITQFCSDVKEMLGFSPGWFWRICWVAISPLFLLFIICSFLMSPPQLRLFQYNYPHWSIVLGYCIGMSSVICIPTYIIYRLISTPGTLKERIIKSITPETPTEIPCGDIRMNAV
Description: (§2) Transporters: The binding properties of compounds were evaluated at native, tissue-derived transporters, namely serotonin (5HT) transporter and norepinephrine (NE) transporter, according to protocols described in Owens (1997), the disclosure of which is hereby incorporated by reference in its entirety into this application.
(§3) The binding affinity (Ki) of these compounds were tested according to the protocols described herein at the following receptors; human α1A, α1B, α1D, α2A, α2B, and α2C adrenergic receptors; human Y1, Y2, Y4, and Y5 receptors; and N-Methyl-D-aspartic acid (NMDA) receptor channels. The binding interactions of these compounds were additionally tested at the norepinephrine (NE) transporter (NE uptake) and serotonin (5-hydroxytryptamine (5HT)) transporter (5HT uptake) according to protocols described herein

[6] = biological target: T4, norepinephrine (NE) transporter (Rattus norvegicus, UniProt Q63380); test: Binding at native norepinephrine transporter (NE uptake); conditions: Table 8
T4 construct: evaluated at native, tissue-derived transporters; from tissue
T4 sequence (Q63380 1-617): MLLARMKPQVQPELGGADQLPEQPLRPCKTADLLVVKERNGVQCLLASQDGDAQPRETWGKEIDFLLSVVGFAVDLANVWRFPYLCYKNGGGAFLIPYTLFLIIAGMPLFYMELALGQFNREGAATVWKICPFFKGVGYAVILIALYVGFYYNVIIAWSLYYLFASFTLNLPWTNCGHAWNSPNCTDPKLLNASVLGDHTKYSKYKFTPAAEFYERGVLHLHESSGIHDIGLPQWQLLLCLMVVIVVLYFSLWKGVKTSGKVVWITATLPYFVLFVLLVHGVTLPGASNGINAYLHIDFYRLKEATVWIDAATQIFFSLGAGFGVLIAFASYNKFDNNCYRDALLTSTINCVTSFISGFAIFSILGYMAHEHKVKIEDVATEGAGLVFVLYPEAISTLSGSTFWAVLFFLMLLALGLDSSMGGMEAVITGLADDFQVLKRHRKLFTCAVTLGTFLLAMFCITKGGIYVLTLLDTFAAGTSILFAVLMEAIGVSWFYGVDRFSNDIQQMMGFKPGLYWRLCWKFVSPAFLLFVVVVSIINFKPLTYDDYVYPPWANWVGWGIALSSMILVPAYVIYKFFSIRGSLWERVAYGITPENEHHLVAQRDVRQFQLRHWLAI
Description: as §2, §3

[7] = Table 7, agonist potency, read-out: rNPFF1 EC50
[8] = Table 3, recombinant rat NPFF1, read-out: rNPFF1 Ki
[9] = Table 7, agonist potency, read-out: rNPFF2 EC50
[10] = Table 3, recombinant rat NPFF2, read-out: rNPFF2 Ki
[11] = Table 4, read-out: Functional Activity rNPFF1 EC50
[12] = Table 4, read-out: Ki Values rNPFF1
[13] = Table 4, read-out: Functional Activity rNPFF2 EC50
[14] = Table 4, read-out: Ki Values rNPFF2
[15] = Table 5, read-out: Functional Activity rNPFF1 EC50
[16] = Table 5, D-Arg- or D-Phe-containing compounds, read-out: Ki Values rNPFF1
[17] = Table 5, read-out: Functional Activity rNPFF2 EC50
[18] = Table 5, D-Arg- or D-Phe-containing compounds, read-out: Ki Values rNPFF2

Compound: Cc1nc(NC(=N)N)nc2ccc(OCCCCCOc3ccccc3)cc12 [Compound 1005A, N-4-methyl-6-[(5-phenoxypentyl)oxy]-2-quinazolinylguanidine]
EC50 (rat NPFF1 receptor [1]; [7]): > 10000 nM | rNPFF1 IA (rat NPFF1 receptor [1]): Inactive | Ki (rat NPFF1 receptor [2]; [8]): 316 nM | EC50 (rat NPFF2 receptor [3]; [9]): 3160 nM | rNPFF2 IA (rat NPFF2 receptor [3]): 21% NPFF | Ki (rat NPFF2 receptor [4]; [10]): 2.14 µM

Compound: Cc1nc(NC(=N)N)nc2ccc(Cl)cc12 [Compound 1013A, N-(6-chloro-4-methyl-2-quinazolinyl)guanidine]
rNPFF2 IA (rat NPFF2 receptor [3]): 52% NPFF | Ki [5]: 2.02 µM | Ki [6]: 41.2 µM

Compound: COc1ccc(Br)cc1S(=O)(=O)N[C@@H](CCCNC(=N)N)C(=O)N[C@@H](Cc1ccccc1)C(N)=O [Compound 1025B]
Functional Activity rNPFF1 I.A. % (rat NPFF1 receptor [1]; Table 4): 78% | EC50 (rat NPFF1 receptor [1]; [11]): 596 nM | Ki (rat NPFF1 receptor [2]; [12]): 328 nM | Functional Activity rNPFF2 I.A. % (rat NPFF2 receptor [3]; Table 4): 33% | EC50 (rat NPFF2 receptor [3]; [13]): > 3160 nM | Ki (rat NPFF2 receptor [4]; [14]): 4.12 µM

Compound: CCc1nc(NC(=N)N)nc2ccc(C)cc12 [Compound 1027A]
EC50 (rat NPFF1 receptor [1]; [7]): > 10000 nM | rNPFF1 IA (rat NPFF1 receptor [1]): Inactive | Ki (rat NPFF1 receptor [2]; [8]): 606 nM | EC50 (rat NPFF2 receptor [3]; [9]): > 10000 nM | rNPFF2 IA (rat NPFF2 receptor [3]): 31% NPFF | Ki (rat NPFF2 receptor [4]; [10]): 3.15 µM

Compound: N=C(N)NCCC[C@H](NS(=O)(=O)c1ccc2ccccc2c1)C(=O)N[C@H](Cc1ccccc1)C(N)=O [Compound 1029B]
Functional Activity rNPFF1 I.A. % (rat NPFF1 receptor [1]; Table 5): 30% | EC50 (rat NPFF1 receptor [1]; [15]): 477 nM | Ki (rat NPFF1 receptor [2]; [16]): 399 nM | Functional Activity rNPFF2 I.A. % (rat NPFF2 receptor [3]; Table 5): 86% | EC50 (rat NPFF2 receptor [3]; [17]): > 3160 nM | Ki (rat NPFF2 receptor [4]; [18]): 2.69 µM

Compound: Cc1ccc2c(C)nc(NC(=N)N)nc2c1 [Compound 3001A, N-(4,7-dimethyl-2-quinazolinyl)guanidine]
classification as agonist or antagonist at the NPFF1 receptor (rat NPFF1 receptor [1]): antagonists | classification as agonist or antagonist at the NPFF2 receptor (rat NPFF2 receptor [3]): antagonists | Ki [5]: 22.6 µM | Ki [6]: 21.4 µM

Compound: N1-[(1S)-2-Amino-1-benzyl-2-oxoethyl]-(2R)-{[amino(imino)methyl]amino}-2-2-bromophenyl) sulfonyl]amino}pentanamide [Compound 1030B]
Functional Activity rNPFF1 I.A. % (rat NPFF1 receptor [1]; Table 5): 35% | EC50 (rat NPFF1 receptor [1]; [15]): 655 nM | Ki (rat NPFF1 receptor [2]; [16]): 251 nM | Functional Activity rNPFF2 I.A. % (rat NPFF2 receptor [3]; Table 5): 71% | EC50 (rat NPFF2 receptor [3]; [17]): 1640 nM | Ki (rat NPFF2 receptor [4]; [18]): 6.2 µM

Compound: N1-[(1S)-2-Amino-1-benzyl-2-oxoethyl]-(2S)-{[amino(imino)methyl]amino}-2-[pentafluorophenyl)sulfonyl]amino}pentanamide [Compound 1024B]
Functional Activity rNPFF1 I.A. % (rat NPFF1 receptor [1]; Table 4): 69% | EC50 (rat NPFF1 receptor [1]; [11]): 720 nM | Ki (rat NPFF1 receptor [2]; [12]): 486 nM | Functional Activity rNPFF2 I.A. % (rat NPFF2 receptor [3]; Table 4): 43% | EC50 (rat NPFF2 receptor [3]; [13]): > 3160 nM | Ki (rat NPFF2 receptor [4]; [14]): 5.4 µM

Second part, the compound after the results:

Functional Activity rNPFF1 I.A. % (rat NPFF1 receptor [1]; Table 4): 102% | classification as agonist or antagonist at the NPFF1 receptor (rat NPFF1 receptor [1]): agonists | Functional Activity rNPFF2 I.A. % (rat NPFF2 receptor [3]; Table 4): 52% | EC50 (rat NPFF2 receptor [3]; [13]): > 3160 nM | classification as agonist or antagonist at the NPFF2 receptor (rat NPFF2 receptor [3]): agonists | Ki (rat NPFF2 receptor [4]; [14]): > 10 µM
Compound: COc1ccc(C)cc1S(=O)(=O)N[C@@H](CCCNC(=N)N)C(=O)N[C@@H](Cc1ccccc1)C(N)=O [Compound 2003B]

Functional Activity rNPFF1 I.A. % (rat NPFF1 receptor [1]; Table 5): 1% | EC50 (rat NPFF1 receptor [1]; [15]): > 10000 nM | classification as agonist or antagonist at the NPFF1 receptor (rat NPFF1 receptor [1]): antagonist | Ki (rat NPFF1 receptor [2]; [16]): 46 nM | Functional Activity rNPFF2 I.A. % (rat NPFF2 receptor [3]; Table 5): 79% | EC50 (rat NPFF2 receptor [3]; [17]): 378 nM | classification as agonist or antagonist at the NPFF2 receptor (rat NPFF2 receptor [3]): agonist | Ki (rat NPFF2 receptor [4]; [18]): 2.86 µM
Compound: N=C(N)NCCC[C@@H](NS(=O)(=O)c1cccc2ccccc12)C(=O)N[C@@H](Cc1ccccc1)C(N)=O [Compound 3001B]

Functional Activity rNPFF1 I.A. % (rat NPFF1 receptor [1]; Table 5): 47% | EC50 (rat NPFF1 receptor [1]; [15]): 644 nM | Ki (rat NPFF1 receptor [2]; [16]): 1290 nM | Functional Activity rNPFF2 I.A. % (rat NPFF2 receptor [3]; Table 5): 61% | EC50 (rat NPFF2 receptor [3]; [17]): 2760 nM | Ki (rat NPFF2 receptor [4]; [18]): > 10 µM
Compound: N1-[(1R)-2-Amino-1-benzyl-2-oxoethyl]-(2S)-{[amino(imino)methyl]amino}-2-[2, 6-difluorophenyl)sulfonyl]amino]pentanamide [Compound 1032B]

Functional Activity rNPFF1 I.A. % (rat NPFF1 receptor [1]; Table 5): 32% | EC50 (rat NPFF1 receptor [1]; [15]): 856 nM | Ki (rat NPFF1 receptor [2]; [16]): 2570 nM | Functional Activity rNPFF2 I.A. % (rat NPFF2 receptor [3]; Table 5): 24% | EC50 (rat NPFF2 receptor [3]; [17]): 1570 nM | Ki (rat NPFF2 receptor [4]; [18]): 6.03 µM
Compound: N1-[(1R)-2-Amino-1-benzyl-2-oxoethyl]-(2S)-{[amino(imino)methyl]amino}-2-[2-bromophenyl) sulfonyl]amino}pentanamide [Compound 1031B]
